According to US20260091086A1, “POLYPEPTIDE COMBINATIONS AND USES THEREOF” (MEDIMMUNE LIMITED, priority 2024, published 2026):
Numbered stars: 1 amine (or outer) side, 2 acyl side, 3 side chain; on linkers, the order of the positions; unused ones are H or OH. Bridge positions count the residues as written; N and C are the ends. Square brackets hold non-standard residues; d marks the D form. Side chains are listed from the residue outwards. Ends that are not written are not given here. * marks the point of attachment. C18 diacid = O=C(O)CCCCCCCCCCCCCCCCC(=O)*; γGlu = O=C(O)[C@H](CCC(=O)[*:2])N[*:1]; αMeF = C[C@](N)(Cc1ccccc1)C(=O)O

Assays:
[1] = system: High-fat diet (DIO) fed rats; assay: Example 9: 4-week LAA or DACRA monotherapy in DIO rats; type: in vivo, rat; conditions: for BW reduction compared to vehicle / reduction of cumulative food intake: 4 weeks
From the text: Study 1 Design: High-fat diet (DIO) fed rats were used to profile LAA or DACRA monotherapy to evaluate food intake, body weight-lowering and body composition effects in a 4-week study. In this experiment, the LAA was that of SEQ ID NO: 11 and the DACRA was cagrilintide.

DIO rats = assay: Example 7: 28-day LAA and GLP/GIP dual agonist study; type: in vivo, rat
Procedure: Study Design: Male rats were fed a high-fat diet (45% kcal fat-D12451; Research Diets) or chow control matched diet (10% kcal fat-D12450K; […] Control rats were dosed SC with Vehicle. Body weight was monitored daily through-out study and body composition measured by EchoMRI at baseline (week-1) and end of study (week 4). […]

DIO Sprague-Dawley rats = assay: Example 6 Study 2: 4-week LAA, GLP-1RA or both; type: in vivo, rat; conditions: QD SC 4 weeks; LAA 7.5 nmol/kg, GLP-1RA 5 nmol/kg, or both; FIG. 5H
Procedure: Study 2 Design: Male DIO Sprague-Dawley rats were injected QD SC with either vehicle, LAA 7.5 nmol/kg, GLP-1RA 5 nmol/kg, or both, for 4 weeks. Monotherapy doses were selected to achieve matching BW loss. BW and food intake were measured daily, and body composition was measured at baseline and end of study.

[2] = system: diet-induced obese (DIO) Sprague-Dawley rats; assay: Example 2: 28-day combination study in DIO rats (body weight, EchoMRI body composition); type: in vivo, rat; conditions: LAA 10 nmol/kg, GLP-1/GCG 5.4 nmol/kg or both
Procedure: Study Design: Male diet-induced obese (DIO) Sprague-Dawley rats were fed a high fat diet (45% fat, D12451; Research Diets) for 34 weeks prior to study start. […] Research Diets). […] Average body weight for all DIO rats at start of study was 722.4+10.1 grams. Body composition was measured by EchoMRI on day-7 and day 26. In this experiment, the LAA was that of SEQ ID NO: 11, and the GLP-1/GCG dual-agonist was cotadutide. Data reported as mean±standard error of the mean (SEM); data analysis performed using GraphPad Prism-statistical analysis performed using One-way ANOVA with Tukey ad hoc analysis.

[3] = system: DIO male pair-housed rats; assay: Example 3 additional study: 28-day body weight, food intake and organ weights in DIO rats; type: in vivo, rat; conditions: 28 days SC daily
Procedure: Study design: DIO male pair-housed rats fed a 32.5% high-fat diet (D12266B) for 7 weeks reached a mean body weight (BW) of ˜595 g. Rats were dosed SC daily for 28 days with vehicle (Vh), GLP-1/GCG dual agonist (1.5 or 5 nmol/kg), LAA (2.5 or 7.5 nmol/kg), or combination (1.5+2.5 nmol/kg, 1.5+7.5 nmol/kg, 5+2.5 nmol/kg, or 5+7.5 nmol/kg, respectively). Food intake (FI) and BW were measured daily. In chow fed lean rats, gastric emptying (GE) was measured via X-ray fluoroscopic quantification following SC injections of Vh, GLP-1/GCG dual agonist at 1, 3, or 10 nmol/kg or LAA at 1, 3, or 10 nmol/kg. In a subsequent acute GE study, lean rats received a single dose of Vh, GLP-1/GCG dual agonist (2 nmol/kg), LAA (2 nmol/kg) or GLP-1/GCG dual agonist+LAA combination (2+2 nmol/kg). In this experiment, the LAA was that of SEQ ID NO: 11, and the GLP-1/GCG dual-agonist was cotadutide.

DIO rat = assay: Example 3: repeat dose DIO rat gastric emptying study; type: in vivo; conditions: 2 nmol/kg monotherapy, beyond 7 days of treatment
From the text: Study Design: […] X-ray fluoroscopic quantification was used to assess gastric emptying. In this experiment, the LAA was that of SEQ ID NO: 11, and the GLP-1R agonist was semaglutide.

With “K(γE-γE-C18diacid)[CNTATC]ATQRLANFLRHSSNN(αMePhe)GPILPPTEVGSNTY-amide (K([γGlu-γGlu-C18 diacid])CNTATCATQRLANFLRHSSNN[αMeF]GPILPPTEVGSNTY-NH2; disulfide 2-7) [LAA]” the “BW reduction compared to vehicle” value ([1]; 2.5 nmol/kg) was −5.2±0.6%, the “reduction of cumulative food intake” value ([1]; 2.5 nmol/kg) was −14.3±1.2 % of vehicle and the “BW reduction compared to vehicle” value ([1]; 10 nmol/kg) was −9.7±0.7%. The “reduction of cumulative food intake” value ([1]; 10 nmol/kg) was −20.9±0.7 % of vehicle, the fat-mass loss ([1]; end of study, 10 nmol/kg) was -28.0 ± 2.3 g and the “proportion of body weight loss that was fat-mass specific” value ([1]; end of study, 10 nmol/kg, FIG. 8C) was 100%. The lean mass ([1]; end of study, FIG. 8B) was “Lean mass was preserved in the LAA groups”, the body weight change (DIO rats; day 28, mono-treatment 10 nmol/kg SC QD) was −5.6% and the “change in fat mass (g)” value (DIO rats; end of study (week 4), EchoMRI, FIG. 6C) was “significant decrease in fat mass”. The “change in lean mass (g)” value (DIO rats; end of study, EchoMRI, mono-treatment, FIG. 6D) was “no effect on lean mass”, the “fat mass change from baseline” value (DIO Sprague-Dawley rats) was “greater loss of fat mass than GLP-1RA monotherapy” and the “body weight loss vs Vehicle” value ([2]; SC QD, FIG. 1A) was “lost significantly more body weight than Vehicle treated rats”. For the same substance, the “fat mass change (EchoMRI)” value ([2]; day 26) was “lost a significant amount of fat mass compared to Vehicle treatment”, the “lean mass change (EchoMRI)” value ([2]; day 26) was “little effect on lean mass” and the “Vh corrected BW change (BW gain)” value ([3]; LAA 2.5 nmol/kg) was −9.4%. For the same substance, the “Vh corrected BW change (BW gain)” value ([3]; LAA 7.5 nmol/kg) was −13.7%, the “Cumulative FI normalized to Vh” value ([3]; monotherapy and combination groups) was “decreased in a dose-dependent manner” and the “GE delay on repeat dosing” value (DIO rat) was “maintained GE delay beyond 7 days of treatment”.
